Molecules are shown by their SMILES. “Also recorded” adds a separate entry of the source.

From patent publication US12251383B2, “Methods and compositions for KRAS inhibitors” (The Board of Regents of the University of Texas System, priority 2019, dated 2025) come the findings set out here.

The subject of this test is SKLU-1 (KRAS^G12D) lung cancer cells. The experiment in a line: Cell proliferation (CyQuant), SKLU-1. The test is classed as cell-based. Conditions: 72 h. Here is the method: Cell proliferation. Potential effect of the ligands on cancer cell proliferation was tested in three lung cancer cells: SKLU-1, H1975 and H522. Cells were plated at ˜1,000 cell per well in a 96-well plate and maintained in full serum media with or without compound at 37° C. for 72 h changing the media with the compound every 24 h. Media with compound was prepared by serial dilution at concentrations indicated. Then cells were washed with PBS and frozen at −80° C. for a minimum of 24 h. Plates were thawed and CyQuant™ dye (in lysis buffer provided in the CyQuant™ cell proliferation assay kit, Invitrogen™) was added, and after a five-minute incubation, fluorescence (excitation: 480 nm emission: 520 nm) was measured with a Tecan Infinite M200 plate reader.

`Cc1nn2c(N3CCN(CCO)CC3)cc(-c3ccccc3)nc2c1-c1ccccc1` [Compound 11, 2-[4-(8-methyl-3,9-diphenyl-2,6,7-triazabicyclo[4.3.0]nona-2,4,7,9-tetraen-5-yl)piperazin-1-yl]ethanol]: the sensitivity of proliferation result is “slightly more sensitive; also recorded: especially responsive”.
